Laboratory results from ChEMBL document CHEMBL1143780, “Towards erythropoietin mimicking small molecules” (Bioorg Med Chem Lett, 2007).
Calls of active or inactive are those of the source. The rule behind the calls is not given here.

What was measured:
BaF3 [1] = experiment: Effect on proliferation in wild type BaF3 cells; format: functional, cell-based; settings: Homo sapiens
BaF3 [2] = experiment: Effect on proliferation in BaF3 EPOr cells; format: functional, cell-based; settings: Homo sapiens

**Q.** With `COc1ccc(C(=O)/C=C/c2ccc(N3C[C@H](CNC(C)=O)OC3=O)cc2)cc1` as the molecule, how does the Activity (BaF3 [1]) read?
**A.** Its Activity is “Active”.

**Q.** What about the Activity (BaF3 [2]) of the same molecule?
**A.** Its Activity is “Active”.
